From patent publication US20030148954A1, “Agents and methods for modulating activator protein-1-mediated cellular processes” (Wisconsin Alumni Research Foundation, priority 2001, published 2003)

Columns and labels:
JNK = test: Western blot with phospho-specific antibodies, JNK; assay type: cell-based, human; conditions: K562-NIC-1 versus K562-Babe, 5 nM TPA 30 min
Procedure: (§1) Stable Transfection—K562 cells were stably transfected by electroporation with a Bio-Rad Gene pulser electroporator. Cells (5×10^6) were washed with ice-cold PBS, resuspended in 0.5 ml of ice-cold PBS, mixed with 5 μg linearized plasmid DNA, and subjected to electroporation (960 microfarad; 220 V) in a 0.4 cm-wide electroporation cuvette (BTX). pBabe and pNIC-1 were linearized with NotI. Cells were then added to 20 ml of complete IMEM, grown for 48 h, and diluted in complete IMEM containing 1.5 μg/ml puromycin (pools of K562-Babe and K562-NIC-1 cells). Stably transfected cells were analyzed for erythroid differentiation as soon as the pools were generated by benzidine staining to reduce the probability of phenotypic changes that may result from prolonged growth.
(§2) To measure the phosphorylation state of components of the MAPK pathway, K562-Babe and K562-NIC-1 cells (1×10^6) were collected after treatment with 5 nM TPA or DMSO for 30 min. Cells were washed once with ice-cold PBS, cell pellets were resuspended in 30 μl ice-cold PBS and were immediately boiled in 70 μl SDS sample buffer for 10 min. Proteins (10 μl) were resolved by SDS-PAGE on a 10% acrylamide gel and transferred to Immobilon P membrane (Millipore). […] Antigen-antibody complexes were detected with ECL Plus™ (Amersham Life Science) according to manufacturer's instructions.

AP-1 = AP-1 luciferase reporter, transient transfection of HeLa cells; assay type: cell-based, human; conditions: TPA 5 nM 16 h
Excerpt: Plasmids—The pBabe-NIC-1 (pNIC-1) expression vector encoding constitutively active Notch-1 (NIC-1) was described previously (36,37,51). This vector was derived from the pBabe-puro retroviral vector and includes a cDNA sequence encoding amino acids 1759-2556 of human Notch-1 with a Myc tag fused to its carboxyl terminus. Human NIC-1 deletion mutants were generated by PCR using a full-length human Notch-1 expression vector as the template. The Notch-dependent reporter plasmid containing four CBF1 binding sites and an simian virus 40 promoter fused to luciferase (p4×CBF1luc) was described previously (52). The AP-1 reporter plasmid (p1×AP1luc) containing a collagenase promoter fragment (−73/+67) with a single AP-1 binding site in the luciferase reporter vector pGL2-basic (Promega) was described previously (53). The NF-κB reporter plasmid (p3×κBluc) containing three NF-κB binding sites and a minimal promoter fused to luciferase was a kind gift of Dr. Shigeki Miyamoto (University of Wisconsin Medical School). […]
For each transfection, cells were incubated for 26 h after transfection and then treated with TPA (final concentration: 5 nM) or the vehicle (DMSO). […] Luciferase activity was normalized by the protein content of the lysates, determined by Bradford assay using γ-globulin as a standard.

CBF1 = molecular target: T1, CBF1 (Homo sapiens, UniProt Q06330); test: Coimmunoprecipitation of CBF1 with NIC-1 from K562 cell lysates; assay type: binding; conditions: K562 cells, retroviral infection
T1 construct: endogenous in cells; host or cells: K562 cells retrovirally infected with NIC-1 expression vectors
T1 sequence (Q06330 whole entry): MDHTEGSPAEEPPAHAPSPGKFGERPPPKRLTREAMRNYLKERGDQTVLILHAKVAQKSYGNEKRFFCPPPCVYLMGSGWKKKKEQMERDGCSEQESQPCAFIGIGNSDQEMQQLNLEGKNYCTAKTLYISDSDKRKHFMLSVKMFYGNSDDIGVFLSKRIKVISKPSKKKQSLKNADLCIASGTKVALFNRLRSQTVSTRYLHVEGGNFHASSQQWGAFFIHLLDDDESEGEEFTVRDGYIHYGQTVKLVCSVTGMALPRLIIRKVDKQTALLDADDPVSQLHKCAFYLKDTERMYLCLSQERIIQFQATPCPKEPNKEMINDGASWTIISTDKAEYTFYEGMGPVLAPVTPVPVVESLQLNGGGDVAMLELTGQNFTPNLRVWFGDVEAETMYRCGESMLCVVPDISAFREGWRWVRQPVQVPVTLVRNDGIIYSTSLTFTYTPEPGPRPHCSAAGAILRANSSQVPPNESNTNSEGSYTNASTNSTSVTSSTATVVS
Procedure: Retroviral Infection—Modified 293 human embryonic kidney cells were grown in 10 cm dishes until they were subconfluent and were cotransfected with plasmid DNA (15 μg) and pMD.G (6 μg) by the calcium phosphate transfection method as described previously (55). The medium was changed once after 10 h of transfection to remove the calcium phosphate. The pMD.G expression vector encodes the viral envelope protein VSV-G. The modified 293 cells were previously stably transfected with pol and gag genes (gift of Shigeki Miyamoto, University of Wisconsin Medical School). After additional incubation for 12 h, the medium was removed and K562 cells (10 ml, 3×10^5/ml) were added with polybrene (4 μg/ml) in complete IMEM and incubated for 36 h. The infected cells were separated from adherent 293 cells and then subjected to immunoprecipitation analysis.
Western Blotting—To detect the expression of Myc-tagged wild type NIC-1 and NIC-1 mutants, whole cell lysates were prepared in Nonidet P-40 lysis buffer (50 mM Hepes, pH 7.4, 1 mM EDTA, 150 mM NaCl, 10% glycerol, 1% Nonidet P-40, 2 mM DTT, 0.2 mM phenylmethanesulfonyl fluoride, and 20 μg/ml leupeptin). […] The proteins were transferred to an Immobilon P membrane (Millipore) and detected by immunoblotting with the anti-Myc tag monoclonal antibody 9E10. CBF1 was detected by immunoblotting with anti-CBF1 polyclonal antisera (Lam & Bresnick, unpublished data).

p38 = test: Western blot with phospho-specific antibodies, p38; assay type: cell-based, human; conditions: K562-NIC-1 versus K562-Babe, 5 nM TPA 30 min
Procedure: as §1, §2

NIC-1: constitutively active Notch-1 intracellular domain, amino acids 1759-2556 of human Notch-1 with carboxyl-terminal Myc tag, expressed from pBabe-NIC-1
effect on TPA-induced or basal phosphorylation of JNK (JNK): did not affect
repression of TPA-induced AP-1-mediated activation (AP-1): repressed
recovery of CBF1 in anti-NIC-1 immunoprecipitates (CBF1): coimmunoprecipitated
effect on TPA-induced or basal phosphorylation of p38 (p38): did not affect
